Measured values taken from patent US11479802B2, “Assays for screening activity of modulators of members of the hydroxy steroid (17-beta) dehydrogenase (HSD17B) family” (Regeneron Pharmaceuticals, Inc., priority 2017, dated 2022).

Molecular target: T1, human HSD17B13 (Homo sapiens, UniProt Q7Z5P4)
T1 sequence (Q7Z5P4 20-300): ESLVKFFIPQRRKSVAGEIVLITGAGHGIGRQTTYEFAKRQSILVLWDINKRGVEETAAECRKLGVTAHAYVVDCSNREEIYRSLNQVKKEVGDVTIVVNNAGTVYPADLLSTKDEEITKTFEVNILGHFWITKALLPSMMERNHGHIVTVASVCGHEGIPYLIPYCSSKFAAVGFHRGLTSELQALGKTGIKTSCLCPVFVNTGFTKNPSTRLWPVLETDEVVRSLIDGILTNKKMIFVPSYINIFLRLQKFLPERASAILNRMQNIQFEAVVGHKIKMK
Assay: Substrate screening of steroid and bioactive lipid libraries against purified recombinant HSD17B13 (NADH-linked luciferase assay)
Assay type: biochemical
Settings: Bioactive Lipid Library; for HSD17B13 Enzymatic Activity Relative Light Units: 5 μM bioactive lipid (Estradiol Control 50 μM), 500 μM NAD+, 100 ng enzyme, 3 hours at 23° C.; for HSD17B13 Enzymatic Activity Percent Estradiol Control: 5 μM bioactive lipid, normalized to 50 μM estradiol after subtraction of 5% DMSO
Protocol: To understand the functional consequences of premature truncation of the HSD17B13 protein due to rs72613567:TA (the associated variant, rs72613567, is an insertion of an adenine adjacent to the donor splice site of exon six (TA allele)), the enzymatic activity of isoforms A and D was evaluated in vitro using recombinant protein and nicotinamide […] dinucleotide as cofactor. Reactions were performed in a final volume of 40 μl of assay buffer (0.2 M Tris-HCl, pH 7.5) which contained 500 μM NAD^+, 5 μM bioactive lipid or 50 μM steroid (all in a final concentration of 5% DMSO), and 100 ng of recombinant human HSD17B13. Reactions were incubated for 3 hours, at 23° C., after which an equal volume detection reagent was added. Following a 1 hour incubation at 23° C., the relative light units (RLUs) were measured on an Envision Plate Reader (Perkin Elmer). Raw RLU values were normalized as percent of control (50 μM estradiol) following subtraction of negative control (5% DMSO) using the following formula: Percent of control (POC)=100×(Sample (RLU)−Negative CTRLaverage)/(Positive CTRLaverage−Negative CTRLaverage).

SMILES | HSD17B13 Enzymatic Activity Relative Light Units | HSD17B13 Enzymatic Activity Percent Estradiol Control
CCCCCC(=O)CC[C@@H]1[C@H](C/C=C\CCCC(=O)O)[C@@H](O)C[C@H]1O [8-iso-13,14-dihydro-15-keto Prostaglandin F2α] | 212520 RLU | −5.58%
CCCCCC(=O)/C=C/[C@H]1C(O)CC(=O)[C@H]1C/C=C\CCCC(=O)O (stereo partly drawn) [8-iso-15-keto Prostaglandin E2] | 262160 RLU | −1.65%
CCCCCC(=O)/C=C/[C@@H]1[C@H](C/C=C\CCCC(=O)O)[C@@H](O)C[C@H]1O [8-iso-15-keto Prostaglandin F2α] | 312360 RLU | 2.31%
CCCCC/C=C\C/C=C\C[C@@H](O)/C=C/C=C\CCCC(=O)O [9(R)-HETE] | 1656640 RLU | 101.86%
CCCCC/C=C\C=C\[C@H](O)CCCCCCCC(=O)O [9(R)-HODE] | 413280 RLU | 9.40%
CC/C=C\C/C=C\C/C=C\C[C@H](O)/C=C/C=C\CCCC(=O)O [9(S)-HEPE] | 564200 RLU | 20.63%
CCCCC/C=C\C/C=C\C[C@H](O)/C=C/C=C\CCCC(=O)O [9(S)-HETE] | 497640 RLU | 15.68%
CCCCC/C=C\C=C\[C@@H](O)CCCCCCCC(=O)O [9(S)-HODE] | 539560 RLU | 18.79%
CC/C=C\C/C=C\C=C\[C@@H](O)CCCCCCCC(=O)O [9(S)-HOTrE] | 586800 RLU | 22.31%
CCCCC/C=C\C=C\[C@H](CCCCCCCC(=O)O)OO [9(S)-HpODE] | 219240 RLU | −5.03%
CCCCCCCC/C=C(\CCCCCCCC(=O)O)[N+](=O)[O-] [9-Nitrooleate] | 31600 RLU | −22.16%
CCCCC/C=C\C=C\C(=O)CCCCCCCC(=O)O [9-OxoODE] | 359280 RLU | 5.39%
CCCCCCCC/C(=C\CCCCCCCC(=O)O)[N+](=O)[O-] [10-Nitrooleate] | 28200 RLU | −22.42%
CCCCC/C=C\C[C@H]1O[C@H]1C/C=C\C/C=C\CCCC(=O)NCCO [11(12)-EET Ethanolamide] | 440800 RLU | 8.74%
CCCCC/C=C\C=C\[C@H](O)CCCCCCCCCC(=O)O [11(R)-HEDE] | 1674200 RLU | 103.16%
CC/C=C\C/C=C\C=C\[C@H](O)C/C=C\C/C=C\CCCC(=O)O [11(R)-HEPE] | 940920 RLU | 48.64%
CCCCC/C=C\C=C\[C@H](O)C/C=C\C/C=C\CCCC(=O)O [11(R)-HETE] | 1064120 RLU | 57.80%
CCCCC/C=C\C=C\[C@@H](O)CCCCCCCCCC(=O)O [11(S)-HEDE] | 1056440 RLU | 57.23%
CC/C=C\C/C=C\C=C\[C@@H](O)C/C=C\C/C=C\CCCC(=O)O [11(S)-HEPE] | 1525600 RLU | 92.11%
CCCCC/C=C\C=C\[C@@H](O)C/C=C\C/C=C\CCCC(=O)O [11(S)-HETE] | 696400 RLU | 30.46%
[2H]C([2H])(/C=C\C[C@H]1[C@@H](O)CC(=O)O[C@@H]1/C=C/[C@@H](O)CCCCC)C([2H])([2H])CC(=O)O [11-dehydro Thromboxane B2-d4] | 366280 RLU | 3.11%
